Results: patent publication US8389728B2, “Pollen tube stimulants from Arabidopsis pistils” (The Arizona Board of Regents, priority 2009, dated 2013)

Columns and labels:
Arabidopsis pollen = assay: Time lapse imaging of pollen germination and pollen tube growth; type: cell-based, Arabidopsis thaliana; settings: for initiation of germination compared to no compound controls: 0.02 mg compound in 50 μL PGM, time lapse > 12 hours; for rate of pollen germination (in words): 0.02 mg compound in 50 μL of pollen growth medium
Method: (§1) Using the optimal concentration of compound for pollen tube stimulation (0.02 mg compound dispensed into 50 μL of pollen growth medium) pollen tube growth were time lapse imaged for a duration of greater than 12 hours. […] For example, Landsberg pollen grew about 130 μm longer in the presence of compound A compared to compound B (FIG. 11B).

[1] = tested on: pollen from the Arabidopsis Columbia strain; assay: Time course of pollen germination and tube growth, Columbia strain; type: cell-based, Arabidopsis thaliana
Method: as §1

[2] = tested on: pollen from the Landsberg strain; assay: Time course of pollen germination and tube growth, Landsberg strain; type: cell-based, Arabidopsis thaliana; settings: 0.02 mg compound
Method: as §1

[3] = tested on: Arabidopsis thaliana, ecotype Columbia; assay: Stimulation of pollen germination and pollen tube growth in vivo (seed yield); settings: sprayed onto plants after blossoms open
Description: The stimulation of pollen germination in vivo may be achieved by applying an effective amount of one or both Compound A or Compound B, or functional derivative thereof, to a plant, such as Arabidopsis thaliana, ecotype Columbia, or another plant that is sufficiently evolutionarily related to Arabidopsis, such as a member of family Brassicaceae. The pollen growth stimulant can be applied in any formulation such as described herein and by any method of applying a compound to the flower of a plant. For example, an effective amount of Compound A can be sprayed onto any given number of plants in an area after blossoms open and pistils are exposed.

[4] = Han et al. 2007; cited from earlier work

Row | SMILES | initiation of germination compared to no compound controls (Arabidopsis pollen) | rate of pollen germination (in words) (Arabidopsis pollen) | extent of pollen growth, compound A versus B (in words) [1] | additional pollen tube length in the presence of compound A compared to compound B [2] | seed yield of plants exposed versus not exposed [3] | solubility in ethyl acetate [4]
1 | C[S+]([O-])N1CCCC2CCCCC21 (stereo not drawn) [Compound A, 1-Methylsulfinyldecahydroquinoline] | approximately two hours earlier | enhanced the rate of pollen germination | grew to a similar extent | about 130 μm | increased seed yield | –
2 | C[S+]([O-])N1CCC2CCCCC2C1 (stereo not drawn) [Compound B, 2-Methylsulfinyldecahydroisoquinoline] | approximately two hours earlier | enhanced the rate of pollen germination | grew to a similar extent | – | – | –
3 | O=c1c(O)c(-c2ccc(O)cc2)oc2cc(O)cc(O)c12 [kaempferol] | – | – | – | – | – | highly soluble in ethyl acetate
